{"source": "patent US10519197B1", "about": "“Peptide-based proteasome inhibitors for treating conditions mediated by senescent cells and for treating cancer” (UNITY BIOTECHNOLOGY, INC., priority 2017, dated 2019)", "type_in_all_cases": "in vivo, mouse", "key": {"[1]": {"tested_on": "3MR and INK-ATTAC mice exposed to cigarette smoke", "assay": "Cigarette smoke COPD model, oxygen saturation by pulse oximeter", "settings": "after two months of cigarette smoke exposure, compared with untreated controls", "description": "As a model for chronic obstructive pulmonary disease (COPD), mice were exposed to cigarette smoke. The effect of a senolytic agent on the mice exposed to smoke is assessed by senescent cell clearance, lung function, and histopathology.\nThe mice used in this study include the 3MR strain, described in US 2017/0027139 A1 and in Demaria et al., Dev Cell. 2014 December 22; 31(6): 722-733. The 3MR mouse has a transgene encoding thymidine kinase that converts the prodrug ganciclovir (GCV) to a compound that is lethal to cells. The enzyme in the transgene is placed under control of the p16 promoter, which causes it to be specifically expressed in senescent cells. Treatment of the mice with GCV eliminates senescent cells.\nOther mice used in this study include the INK-ATTAC strain, described in US 2015/0296755 A1 and in Baker et al., Nature 2011 Nov. 2; 479(7372):232-236. The INK-ATTAC mouse has a transgene encoding switchable caspase 8 under control of the p16 promoter. The caspase 8 can be activated by treating the mice with the switch compound AP20187, whereupon the caspase 8 directly induces apoptosis in senescent cells, eliminating them from the mouse.\nTo conduct the experiment, six-week-old 3MR (n=35) or INK-ATTAC (n=35) mice were chronically exposed to cigarette smoke generated from a Teague TE-10 system, an automatically-controlled cigarette smoking machine that produces a combination of side-stream and mainstream cigarette smoke in a chamber, which is transported to a collecting and mixing chamber where varying amounts of air is mixed with the smoke mixture. The COPD protocol was adapted from the COPD core facility at Johns Hopkins University (Rangasamy et al., 2004, J. Clin. Invest. 114:1248-1259; Yao et al., 2012, J. Clin. Invest. 122:2032-2045).\nMice received a total of 6 hours of cigarette smoke exposure per day, 5 days a week for 6 months. Each lighted cigarette (3R4F research cigarettes containing 10.9 mg of total particulate matter (TPM), 9.4 mg of tar, and 0.726 mg of nicotine, and 11.9 mg carbon monoxide per cigarette [University of Kentucky, Lexington, Ky.]) was puffed for 2 seconds and once every minute for a total of 8 puffs, with the flow rate of 1.05 L/min, to provide a standard puff of 35 cm^3. […] The smoke chamber atmosphere was monitored for total suspended particulates (80-120 mg/m3) and carbon monoxide (350 ppm). […]\nAfter two months of cigarette smoke (CS) exposure, lung function was assessed by monitoring oxygen saturation using the MouseSTAT PhysioSuite™ pulse oximeter (Kent Scientific). […] Mice were monitored for 30 seconds and the average peripheral capillary oxygen saturation (SpO2) measurement over this duration was calculated."}, "[2]": {"tested_on": "LDLR-/- mice fed a HFD", "assay": "Atherosclerosis model (LDLR-/- mice, high fat diet): Sudan IV staining of aortic plaques", "settings": "25 mg/kg intraperitoneally, timepoint 3 (week 12)", "description": "(§1) Two groups of LDLR−/− mice (10 weeks) are fed a high fat diet (HFD) (Harlan Teklad TD.88137) having 42% calories from fat, beginning at Week 0 and throughout the study. Two groups of LDLR−/− mice (10 weeks) are fed normal chow (−HFD). From weeks 0-2, one group of HFD mice and −HFD mice are treated with Nutlin-3A (25 mg/kg, intraperitoneally). One treatment cycle is 14 days treatment, 14 days off. Vehicle is administered to one group of HFD mice and one group of −HFD mice. At week 4 (timepoint 1), one group of mice are sacrificed and to assess presence of senescent cells in the plaques. For the some of the remaining mice, Nutlin-3A and vehicle administration is repeated from weeks 4-6. At week 8 (timepoint 2), the mice are sacrificed and to assess presence of senescent cells in the plaques. The remaining mice are treated with Nutlin-3A or vehicle from weeks 8-10. At week 12 (timepoint 3), the mice are sacrificed and to assess the level of plaque and the number of senescent cells in the plaques.\n(§2) At the end of timepoint 3, LDLR−/− mice fed a HFD and treated with Nutlin-3A or vehicle (n=3 for all groups) were sacrificed, and aortas were dissected and stained with Sudan IV to detect the presence of lipid. Body composition of the mice was analyzed by MRI, and circulating blood cells were counted by Hemavet™."}, "[3]": {"tested_on": "C57BL/6J mice with surgery-induced osteoarthritis", "assay": "Osteoarthritis model (ACL surgery): histopathology of joint tissue", "settings": "5.8 μg per operated knee, intra-articular; 4 weeks post-surgery", "description": "(§3) The model was implemented as follows. C57BL/6J mice underwent surgery to cut the anterior cruciate ligament of one rear limb to induce osteoarthritis in the joint of that limb. During week 3 and week 4 post-surgery, the mice were treated with 5.8 μg of Nutlin-3A (n=7) per operated knee by intra-articular injection, q.o.d. for 2 weeks. At the end of 4 weeks post-surgery, joints of the mice were monitored for presence of senescent cells, assessed for function, monitored for markers of inflammation, and underwent histological assessment."}, "[4]": {"tested_on": "C57BL/6J mice with surgery-induced osteoarthritis", "assay": "Osteoarthritis model (ACL surgery): weight bearing test", "settings": "5.8 μg per operated knee, intra-articular; 4 weeks post-surgery", "description": "as §3\nFunction of the limbs was assessed 4 weeks post-surgery by a weight bearing test to determine which leg the mice favored. The mice were allowed to acclimate to the chamber on at least three occasions prior to taking measurements. Mice were maneuvered inside the chamber to stand with one hind paw on each scale. The weight that was placed on each hind limb was measured over a three second period. At least three separate measurements were made for each animal at each time point. The results were expressed as the percentage of the weight placed on the operated limb versus the contralateral unoperated limb."}, "[5]": {"tested_on": "MMP3, MMP13, PAI1, p21, IGFBP2, IL-1A, and IL-1B", "assay": "Atherosclerosis model (LDLR-/- mice, high fat diet): RT-PCR of SASP factors and senescent cell markers in aortic arches", "settings": "25 mg/kg intraperitoneally, HFD", "description": "as §1, with “At week 8 (timepoint 2), the mice are sacrificed and to assess presence of senescent cells in the plaques. The remaining mice are treated with Nutlin-3A or vehicle from weeks 8-10. At week 12 (timepoint 3), the mice are sacrificed and to assess the level of plaque and the number of senescent cells in the plaques.” left out\nAt the end of timepoint 1, LDLR−/− mice fed a HFD and treated with Nutlin-3A or vehicle were sacrificed (n=3, all groups), and the aortic arches were dissected for RT-PCR analysis of SASP factors and senescent cell markers. Values were normalized to GAPDH and expressed as fold-change versus age-matched, vehicle-treated LDLR−/− mice on a normal diet.\nAt the end of timepoint 2, LDLR−/− mice fed a HFD and treated with Nutlin-3A or vehicle (n=3 for all groups) were sacrificed, and aortic arches were dissected for RT-PCR analysis of SASP factors and senescent cell markers. Values were normalized to GAPDH and expressed as fold-change versus age-matched, vehicle-treated LDLR−/− mice on a normal diet."}, "[6]": {"assay": "Atherosclerosis model: body composition by MRI", "settings": "25 mg/kg intraperitoneally, timepoint 3 (week 12), mice fed the high fat diet", "description": "as §1, §2"}, "[7]": {"assay": "Atherosclerosis model: circulating blood cell counts by Hemavet", "settings": "25 mg/kg intraperitoneally, timepoint 3 (week 12)", "description": "as §1, §2"}, "[8]": {"tested_on": "p16, IL-6, and MMP13", "assay": "Osteoarthritis model (ACL surgery): qRT-PCR of senescence and SASP markers in operated joints", "settings": "5.8 μg per operated knee, intra-articular, q.o.d. for 2 weeks; 4 weeks post-surgery; mRNA by qRT-PCR", "description": "as §3\nTwo control groups of mice were included in the studies performed: one group comprising C57BL/6J or 3MR mice that had undergone a sham surgery (n=3) (i.e., surgical procedures followed except for cutting the ACL) and intra-articular injections of vehicle parallel to the GCV (ganciclovir) treated group; and one group comprising C57BL/6J or 3MR mice that had undergone an ACL surgery and received intra-articular injections of vehicle (n=5) parallel to the GCV-treated group. RNA from the operated joints of mice from the Nutlin-3A treated mice was analyzed for expression of SASP factors (mmp3, IL-6) and senescence markers (p16). qRT-PCR was performed to detect mRNA levels."}}, "data": [{"smiles": "CC[C@H](C(=O)N1CCCC[C@H]1C(=O)O[C@H](CCc1ccc(OC)c(OC)c1)c1cccc(OCC(=O)NCC(CNC(=O)COc2cccc([C@@H](CCc3ccc(OC)c(OC)c3)OC(=O)[C@@H]3CCCCN3C(=O)[C@@H](CC)c3cc(OC)c(OC)c(OC)c3)c2)CN(C)C)c1)c1cc(OC)c(OC)c(OC)c1", "note": "[AP2018]", "values": [{"measurement": "SpO2 levels", "setting": "[1]", "result": "statistically significant increases"}]}, {"smiles": "CC1(C)CCC(c2ccc(Cl)cc2)=C(CN2CCN(c3ccc(C(=O)NS(=O)(=O)c4ccc(N[C@H](CCN5CCOCC5)CSc5ccccc5)c(S(=O)(=O)C(F)(F)F)c4)cc3)CC2)C1", "note": "[ABT-263]", "values": [{"measurement": "SpO2 levels", "setting": "[1]", "result": "statistically significant increases"}]}, {"smiles": "COc1ccc(C2=N[C@@H](c3ccc(Cl)cc3)[C@@H](c3ccc(Cl)cc3)N2C(=O)N2CCNC(=O)C2)c(OC(C)C)c1", "note": "[Nutlin-3A]", "values": [{"measurement": "reduction of the surface area covered by plaques in the descending aorta", "setting": "[2]", "result": "about 45%"}, {"measurement": "destruction of the proteoglycan layer (histopathology of joint tissue)", "setting": "[3]", "result": "completely abrogated this effect"}, {"measurement": "weight bearing: favoring of the unoperated hind limb over the operated hind limb", "setting": "[4]", "result": "abrogated this effect"}, {"measurement": "expression of SASP factors and senescent cell markers MMP3, MMP13, PAI1, p21, IGFBP2, IL-1A, and IL-1B in aortic arch", "setting": "[5]; after one treatment cycle (timepoint 1, week 4)", "result": "reduced expression"}, {"measurement": "expression of SASP factors and senescent cell markers in aortic arch", "setting": "[5]; multiple treatment cycles (timepoint 2, week 8)", "result": "reduced expression of most markers"}, {"measurement": "mass and body fat composition", "setting": "[6]", "result": "decreased"}, {"measurement": "platelet and lymphocyte counts versus vehicle treated mice", "setting": "[7]", "result": "equivalent"}, {"measurement": "SpO2 levels", "setting": "[1]", "result": "statistically significant increases"}, {"measurement": "expression of p16, IL-6, and MMP13 in the tissue", "setting": "[8]", "result": "reduced the expression back to below the level of the controls"}]}, {"smiles": "Nc1nc(O)c2ncn(COC(CO)CO)c2n1", "note": "[ganciclovir]", "values": [{"measurement": "SpO2 levels", "setting": "[1]", "result": "statistically significant increases"}]}]}
